Reference: article PMC10997755, “Discovery of a small-molecule inhibitor that traps Polθ on DNA and synergizes with PARP inhibitors” (Nature Communications, 2024)

Assays:
DLD1 Parental cells = test: Clonogenic assay; type: cell-based; details: DLD1 Parental
Method: (§1) Cells were plated on six or twelve or twenty-four well plates. In six well plate, 1000 cells/ well of BRCA2 -/-, BRCA1 -/-, PALB2 mut and 500 cells/ well of wildtype pair was plated; In twelve well plate, 600 cells/ well of BRCA2 -/-, BRCA1 -/-, PALB2 mut and 400 cells/ well of wildtype pair was plated; In twenty-four well plate, 500 cells/ well of BRCA2 -/-, BRCA1 -/-, PALB2 mut and 300 cells/ well of wildtype pair was plated. For MEFs, 300 cells per well in six-well plate were seeded. The medium was replaced every 2 days until the colonies were ready for staining in 10–12 days. For staining: Medium was removed from plates, and cells were rinsed with PBS. Fixation was carried out with—Water: Ethanol: Acetic acid (5:4:1) for 30 min followed by staining of colonies with 0.5% crystal violet in Water: Ethanol (3:2) for 2 h at room temperature. The plates were rinsed with water and left for drying overnight at room temperature. Colonies were then counted and IC50 was calculated using results from 3 or more independent experiments. Response curves are shown as mean colony formation +/- S.E.M.

DLD1 BRCA2 -/- cells = test: Clonogenic assay; type: cell-based; details: for Average (colonies): DLD1 BRCA2 -/-
Method: as §1
Data are expressed as mean ± SEM from at least 3 independent experiments with triplicates for each condition unless stated otherwise. When conducting comparison between two groups, two-tailed unpaired t-test was used. Significance was assumed at p < 0.05. Asterisks in the figures indicate significance, ^∗p < 0.05, ^∗∗p < 0.01, ^∗∗∗p < 0.001. Combenefit® software version 2.021 was used to perform synergy analyses for drug combinations between RTx-161 and PARPi. GraphPad Prism 9 software was used to calculate IC50.

Polθ-pol = biological target: T1, Polθ-pol (Homo sapiens, UniProt O75417); test: Cy5 fluorescence Polθ-pol DNA synthesis (strand displacement) IC50 assay; type: biochemical; details: Polθ-pol DNA synthesis, Cy5 fluorescence
T1 construct: purified recombinant human Polθ-pol (comprising amino acid residues 1792–2590); made in house
T1 sequence (O75417 1792-2590): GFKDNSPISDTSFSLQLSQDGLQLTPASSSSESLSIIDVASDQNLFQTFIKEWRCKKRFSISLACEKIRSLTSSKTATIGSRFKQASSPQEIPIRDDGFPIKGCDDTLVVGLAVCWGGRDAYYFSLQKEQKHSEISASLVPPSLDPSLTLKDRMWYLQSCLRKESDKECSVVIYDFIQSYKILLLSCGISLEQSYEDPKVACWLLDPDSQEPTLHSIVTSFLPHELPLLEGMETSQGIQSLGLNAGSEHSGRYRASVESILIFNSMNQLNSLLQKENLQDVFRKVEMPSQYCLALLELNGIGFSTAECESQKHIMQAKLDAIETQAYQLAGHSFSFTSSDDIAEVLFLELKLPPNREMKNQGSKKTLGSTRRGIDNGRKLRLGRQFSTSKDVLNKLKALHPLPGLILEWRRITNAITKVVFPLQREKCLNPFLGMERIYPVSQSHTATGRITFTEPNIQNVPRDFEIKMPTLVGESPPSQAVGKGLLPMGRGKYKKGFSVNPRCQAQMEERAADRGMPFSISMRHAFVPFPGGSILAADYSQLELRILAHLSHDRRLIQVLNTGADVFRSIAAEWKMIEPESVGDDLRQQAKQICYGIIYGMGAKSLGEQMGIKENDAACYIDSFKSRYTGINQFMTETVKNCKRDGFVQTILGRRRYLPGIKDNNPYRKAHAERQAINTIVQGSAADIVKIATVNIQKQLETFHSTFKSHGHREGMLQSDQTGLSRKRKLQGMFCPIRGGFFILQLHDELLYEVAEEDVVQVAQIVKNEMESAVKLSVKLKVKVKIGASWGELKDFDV
Method: The following Cy5 fluorescence assay was used to measure the ability of compounds to inhibit Polθ-pol in vitro. The fluorescent based assay was performed as follows: 60 nM of the pre-annealed primer-template containing a 5’ Cy5 fluorophore conjugated template strand (RP486-Cy5), a downstream complementary oligo conjugated with a 3’ Iowa BlackReg Dark quencher (RP343BHQRQ) and a primer strand (RP469D) was mixed with 50 uM 2'-deoxyribonucleoside triphosphates (dNTPs), 0.1 mg/mL Bovine serum albumin (BSA), 0.01% NP-40, 10% glycerol, 1 mM dithiothreitol (DTT), 10 mM MgCl2, 25 mM TrisHCl pH 7.8 in the presence of 2.5% DMSO with or without various concentrations (7-point dilution series) of Polθ-pol small-molecule inhibitors at 37 °C in a volume of 40 μL. The reactions were initiated by the addition of 5 nM of purified recombinant human Polθ-pol (comprising amino acid residues 1792–2590). The reactions were terminated by the addition of 20 mM EDTA after 18 min, and the Cy5 fluorescence intensity was measured using a CLARIOstar (BMG Labtech) plate reader. Reactions were performed in triplicate and the % inhibition at each concentration of the respective compound of Formula I was based on the mean.

SMILES: Cc1cccc(N(C)C(=O)[C@@H]2[C@H](O)CCN2c2nc(C)cc(C(F)(F)F)c2C#N)c1 [ART558, reference compound]
- Average (colonies) (DLD1 Parental cells; 0.1875 uM, block 1 of sheet): 47.5
- Average (colonies) (DLD1 Parental cells; 0.1875 uM, block 2 of sheet): 42
- Average (colonies) (DLD1 Parental cells; 0.1875 uM, block 3 of sheet): 77
- Average (colonies) (DLD1 Parental cells; 0.375 uM, block 1 of sheet): 51
- Average (colonies) (DLD1 Parental cells; 0.375 uM, block 2 of sheet): 61
- Average (colonies) (DLD1 Parental cells; 0.375 uM, block 3 of sheet): 80
- Average (colonies) (DLD1 Parental cells; 0.75 uM, block 1 of sheet): 39.5
- Average (colonies) (DLD1 Parental cells; 0.75 uM, block 2 of sheet): 41.5
- Average (colonies) (DLD1 Parental cells; 0.75 uM, block 3 of sheet): 76.5
- Average (colonies) (DLD1 Parental cells; 1.5 uM, block 1 of sheet): 42.5
- Average (colonies) (DLD1 Parental cells; 1.5 uM, block 2 of sheet): 44.5
- Average (colonies) (DLD1 Parental cells; 1.5 uM, block 3 of sheet): 77.5
- Average (colonies) (DLD1 Parental cells; 3 uM, block 1 of sheet): 58.5
- Average (colonies) (DLD1 Parental cells; 3 uM, block 2 of sheet): 36.5
- Average (colonies) (DLD1 Parental cells; 3 uM, block 3 of sheet): 78.5
- Average (colonies) (DLD1 Parental cells; 6 uM, block 1 of sheet): 42.5
- Average (colonies) (DLD1 Parental cells; 6 uM, block 2 of sheet): 59
- Average (colonies) (DLD1 Parental cells; 6 uM, block 3 of sheet): 76.5
- Average (colonies) (DLD1 Parental cells; 12 uM, block 2 of sheet): 57.5
- Average (colonies) (DLD1 Parental cells; 12 uM, block 3 of sheet): 79
- Average (colonies) (DLD1 BRCA2 -/- cells; 0.1875 uM, block 1 of sheet): 21.5
- Average (colonies) (DLD1 BRCA2 -/- cells; 0.1875 uM, block 2 of sheet): 41.5
- Average (colonies) (DLD1 BRCA2 -/- cells; 0.1875 uM, block 3 of sheet): 18
- Average (colonies) (DLD1 BRCA2 -/- cells; 0.375 uM, block 1 of sheet): 24.5
- Average (colonies) (DLD1 BRCA2 -/- cells; 0.375 uM, block 2 of sheet): 37.5
- Average (colonies) (DLD1 BRCA2 -/- cells; 0.375 uM, block 3 of sheet): 18.5
- Average (colonies) (DLD1 BRCA2 -/- cells; 0.75 uM, block 1 of sheet): 10.5
- Average (colonies) (DLD1 BRCA2 -/- cells; 0.75 uM, block 2 of sheet): 31
- Average (colonies) (DLD1 BRCA2 -/- cells; 0.75 uM, block 3 of sheet): 18.5
- Average (colonies) (DLD1 BRCA2 -/- cells; 1.5 uM, block 1 of sheet): 15.5
- Average (colonies) (DLD1 BRCA2 -/- cells; 1.5 uM, block 2 of sheet): 30.5
- Average (colonies) (DLD1 BRCA2 -/- cells; 1.5 uM, block 3 of sheet): 20.5
- Average (colonies) (DLD1 BRCA2 -/- cells; 3 uM, block 1 of sheet): 14
- Average (colonies) (DLD1 BRCA2 -/- cells; 3 uM, block 2 of sheet): 22.5
- Average (colonies) (DLD1 BRCA2 -/- cells; 3 uM, block 3 of sheet): 15
- Average (colonies) (DLD1 BRCA2 -/- cells; 6 uM, block 1 of sheet): 6.5
- Average (colonies) (DLD1 BRCA2 -/- cells; 6 uM, block 2 of sheet): 28.5
- Average (colonies) (DLD1 BRCA2 -/- cells; 6 uM, block 3 of sheet): 8
- Average (colonies) (DLD1 BRCA2 -/- cells; 12 uM, block 2 of sheet): 11.5
- Average (colonies) (DLD1 BRCA2 -/- cells; 12 uM, block 3 of sheet): 6
- IC50 (DLD1 BRCA2 -/- cells; Homo sapiens, DLD-1, DLD1 cells, label beside BRCA2-null curve, read-out: IC50 clonogenic survival): ~2500 nM
- potency in BRCA2-null cells compared with RTx-161 (DLD1 BRCA2 -/- cells; clonogenic survival): slightly reduced potency
- IC50 (Polθ-pol): 11.4 nM
